Source: patent publication US20160367557A1, “HE[…] ACID DERIVATIVES WHICH ARE USEFUL IN THE TREATMENT, AMELIORATION OR PREVENTION OF A VIRAL DISEASE” (Savira pharmaceuticals GmbH, priority 2012, published 2016)

Tests used:
[1] = system: influenza A virus (IAV) A/Aichi/2/68 (H3N2); experiment: Cytopathic effect (CPE) assay; assay type: cell-based; conditions: MDCK cells, 48 hrs
MDCK cells = experiment: Cytotoxicity in uninfected cells of the CPE assay; assay type: cell-based, canine; conditions: at 50 μM
Protocol: After removal of the culture medium and one washing step with PBS, virus and compound were added together to the cells. In the wells used for cytotoxicity determination (i.e. in the absence of viral infection), no virus suspension was added. Instead, infection medium was added. Each treatment was conducted in two replicates. After incubation at 37° C., 5% CO2 for 48 hrs, each well was observed microscopically for apparent cytotoxicity, precipitate formation, or other notable abnormalities. Then, cell viability was determined using CellTiter-Glo luminescent cell viability assay (Promega). The supernatant was removed carefully and 65 μl of the reconstituted reagent were added to each well and incubated with gentle shaking for 15 min at room temperature. Then, 60 μl of the solution was transferred to an opaque plate and luminescence (RLU) was measured using Synergy HT plate reader (Biotek).
Relative cell viability values of uninfected-treated versus uninfected-untreated cells were used to evaluate cytotoxicity of the compounds. Substances with a relative viability below 80% at the tested concentration were regarded as cytotoxic and retested at lower concentrations.

[2] = molecular target: T1, influenza A virus (IAV) PA-Nter fragment (amino acids 1-209) (Influenza A virus, UniProt P31343); experiment: FRET endonuclease activity assay; assay type: biochemical; conditions: for IC50: calculated from initial reaction velocities (v0)
T1 construct: PA-Nter fragment (amino acids 1-209); made in house

SMILES | melting point [°C] | FRET activity in words [2] | further results
O=C(O)c1cn(CCc2cccc(F)c2)c2cc(C3CC3)nn2c1=O | 220 to 225 |  | 
CCOC(=O)c1cn(CCc2ccc(Cl)cc2)c2cc(C3CC3)nn2c1=O | 190 to 195 |  | 
CCOC(=O)c1cn(CCc2cccc(C(F)(F)F)c2)c2cc(C3CC3)nn2c1=O | 140 to 145 |  | 
CCOC(=O)c1cn(CCCc2ccccc2)c2cc(C3CC3)nn2c1=O | 150 to 155 |  | 
CCOC(=O)c1cn(Cc2ccccc2)c2cc(C3CCCC3)nn2c1=O | 148 to 150 |  | 
O=C(O)c1c[nH]c2nc(NCc3cccc4ccccc34)nn2c1=O | 245 to 250 |  | 
CSC1=NC2C(=O)C(C(=O)O)=CN(Cc3ccccc3-c3ccccc3)C2S1 (stereo not drawn) |  |  | CPE activity in words [1]: inactive; Cytotoxicity (relative viability below 80% regarded as cytotoxic) (MDCK cells): Toxic
O=C(O)c1cn(Cc2ccccc2-c2ccccc2)c2nc(NCc3ccccc3)sc2c1=O |  | inactive | 
O=C(O)c1cn(Cc2ccccc2-c2ccccc2)c2sc(NC3CCCC3)nc2c1=O |  |  | CPE activity in words [1]: inactive; Cytotoxicity (relative viability below 80% regarded as cytotoxic) (MDCK cells): toxic
O=C(O)c1cn(Cc2ccccc2-c2ccccc2)c2sc(N3CCCCC3)nc2c1=O |  | inactive | 
CNC(=O)c1cn(Cc2ccccc2-c2ccccc2)c2sc(NCc3ccccc3)nc2c1=O |  | inactive | 
O=C(O)c1cn(Cc2ccccc2-c2ccccc2)c2nc(NC3CCCC3)sc2c1=O |  | inactive | 
O=C(O)c1cn(Cc2ccccc2-c2ccccc2)c2sc(NS(=O)(=O)c3ccc(Cl)cc3)nc2c1=O |  |  | IC50 ([1]; Influenza A virus, H3N2): 18 µM; IC50 [2]: 2.2 µM
CCOC(=O)c1cn(Cc2ccccc2-c2ccccc2)c2sc(NS(=O)(=O)c3ccc(Cl)cc3F)nc2c1=O |  | inactive | IC50 ([1]; Influenza A virus, H3N2): 39 µM
O=CNc1nc2c(=O)c(C(=O)O)cn(Cc3ccccc3-c3ccccc3)c2s1 |  |  | CPE activity in words [1]: inactive; IC50 [2]: 47 µM
CCOC(=O)c1cn(Cc2ccccc2-c2ccccc2)c2sc(SC)nc2c1=S |  | inactive | inhibition at 50 µM ([1]; Influenza A virus, H3N2, @ 50 μM, read-out: CPE % reduction): 35%
Cc1[nH]c2ncnn2c(=O)c1CC(=O)O |  | inactive | 
O=C(O)c1c[nH]c2ccnn2c1=O [drawing 208] |  |  | inhibition at 5 µM ([2]; 20 min, @ 5 μM, read-out: FRET % reduction of v0): 26%
O=C(O)c1cn(CCc2ccccc2)c2cc(C3CCCC3)nn2c1=O [drawing 219] |  |  | CPE activity in words [1]: inactive; FRET % reduction of v0 ([2]; @ 25 μM): 26% @ 25 μM
Nc1cc2n(C(=O)C3(c4ccccc4)CCCC3)cc(C(=O)O)c(=O)n2n1 [drawing 232] |  | inactive | 
